In patent publication US6828315B1, “1-Amino triazoloc4,3-a! quinazoline-5-ones and/or -5-thiones inhibiting phosphodiesterase IV” (Warner-Lambert LLC, priority 1999, dated 2004):

Experiments:
[1] = target: type 4 phosphodiesterases (PDE4); experiment: Inhibition of the phosphodiesterase (PDE4), enzymatic preparation from line U937; format: biochemical; conditions: PDE4 from cytosolic preparation of human cell line U937
Method: The capacity of the formula (I) compounds of the invention to inhibit the cyclic nucleotide phosphodiesterases is evaluated by their Cl50 measurement (necessary concentration to inhibit 50% of enzymatic activity).
The type 4 phosphodiesterases are obtained from a cytosolic preparation extracted from the human origin cellular line U937 according to a method adapted from T. J. Torphy and al., 1992, J.Pharm.Exp. Ther. 263: 1195-1205
The other classes of phosphodiesterases are obtained after partial purification FPLC on Mono Q column. (anion exchange column) according to a method adapted from Lavan B. E., Lakey T., Houslay M. D. Biochemical Pharmacology, 1989, 38(22), 4123-4136., and from Silver P. J and al., 1988, Eur.J. Pharmacol. 150: 85-94, either, from human origin cellular lines for PDE 1 (monocytar line TPH1) and PDE5 (line MCF7 issued from an adenocarcinoma), or from dog aorta for PDE 3, or for the human PDE3A, from gene cloning in insect cells SF21 in baculovirus, according to a method adapted from Luckow, V. A. and al., 1991 in Recombinant DNA Technology&Applications.,eds. Prokop, Bajpai,R. K.&Ho,C. S., pp97-152. The enzymatic activity measurement of the different PDE classes, and in particular the PDE 4, is performed according to a method adapted from W. J. Thompson and al. 1979, Advances in Cyclic Nucleotide Research, Vol. 10: 69-92, ed. G. Brooker and al. Raven Press, NY.
For the Cl50 determination, the enzymatic activity is measured in the presence of inhibitor within concentration margins of 0.1 to 100 μM.
The following table illustrates the PDE4 inhibitory activity from enzymatic preparation obtained from the line U937.

[2] = test system: TNFα production by human leukocytes; experiment: Inhibition of TNFα production by human leukocytes stimulated by lipopolysaccharid; format: cell-based; conditions: Leukocyte; LPS-stimulated human leukocytes in 75% human serum; TNFα by ELISA after 15-18 hours
Method: This test aims to evaluate capacity of the compounds of the invention to inhibit TNFα (tumor necrosis-α) production by human leukocytes in the presence of high human serum concentration (75%). […] The test described here is based on the use of human leukocytes cultivated in 75% of human serum. It had been previously documented that these conditions simulate the observed situation when TNFα dosage is performed in human blood.
The compounds to test are dissolved into 20 mM (sometimes 6 mM) of DMSO. 100 μl of DMSO are distributed into 7 wells of a a 96 well microtiter plate (wells B to H). 150 μl of the compound solution are distributed into line A wells. 50 μl are then sequentially transferred 7 times. 20 μl of this serial dilutions of compounds are sequentially transferred twice in wells containing 180 μl of RPMI 1640 (Gibco). 50 μl of these dilutions are then transferred in wells where cells will be added.
Each test includes a series of eight wells without LPS (100% of inhibition), eight wells with LPS (0% of inhibition) and a series of Rolipram dilutions in order to enable comparison of the tests between each other and then to evaluate their variability.
A leukocyte vial is unfrozen in bain-marie (37° C.), its content is transferred into a 15 ml tube containing 10 ml of RPMI added with 5% of human serum (RPMI-5% HS). The cells are sedimented (800 g, 6 minutes, 4° C.), resuspended in 10 ml of the same medium and counted by dilution in Trypan blue solution. After centrifugating (800 g, 6 minutes, 4° C.), the cells are resuspended to 2×10^6/ml in human serum.
To 50 μl aliquots of different dilutions of compounds, 100 μl of cells are added. The plates are then incubated 30 minutes at 37° C., then 50 μl of solution 4 μg/ml of LPS prepared in human serum are added. The plates are incubated for the night at 37° C.
After incubation for 15-18 hours, 90 μl of growth supernatant are taken and transferred into rounded-bottom microtiter wells. The TNFα presence is then evaluated by ELISA (Pharmingen) by using 50 μl of supernatant. The protocol described by the manufacturer is strictly applied.

[3] = test system: TNFα production in plasma; experiment: In vivo TNFα model in Wistar rat; conditions: po, 1.5 h, 10 mg/kg p.o. 30 min before LPS i.p., plasma TNFα 90 min after LPS, male Wistar rats, read-out: % Inhibition to 10 mg/kg
Source text: The TFNα is a cytokin playing a central role in inflammation mechanisms. Its production may be induced by injection of lipopolysaccharid (LPS). It has been shown that the intracellular AMPc increase, produced in particular by PDE4 inhibitors, decreases the TNFα production in in vitro and in vivo models. Therefore it matters here to quantify in vivo anti-inflammatory potential of the compounds of the invention, administrated by oral route (p.o.) by measuring inhibition of TNFα production in plasma in rat, the latter having received a intraperitoneal injection (i.p.) of lipolysaccharid (LPS). The treatment by the compounds of the invention or the carrier is administrated by oral route in male Wistar rats, 30 min. before LPS injection. The rats are sacrificed 90 min. after LPS stimulation, the blood is harvested on EDTA and TNFα concentration is measured in each plasma sample.

Structure (SMILES): CN(C)c1nnc2n(C/C=C/c3cccnc3)c(=O)c3cc(Br)ccc3n12 [Compound 3, 7-Bromo-1-dimethylamino-4-((E)-3-pyridin-3-yl-allyl)-4H-[1,2,4]triazolo[4,3-a]quinazolin-5-one]
- IC50 [1]: 79 nM
- IC50 [2]: 3400 nM
- change in vivo at 10 mg/kg [3]: -98%

Structure (SMILES): COc1ccc(Cn2c(=O)c3cc(Br)ccc3n3c(N4CCCCCC4)nnc23)cc1OC [Compound 35, 1-Azepan-1-yl-7-bromo-4-(3,4-dimethoxy-benzyl)-4H-[1,2,4]triazolo[4,3-a]quinazolin-5-one]
- IC50 [1]: 20 nM
- change in vivo at 10 mg/kg [3]: -51%
- melting point: 185 °C

Structure (SMILES): N#Cc1ccc(Cn2c(=O)c3cc(Br)ccc3n3c(N4CCCC4)nnc23)cc1 [Compound 46, 4-(7-Bromo-5-oxo-1-pyrrolidin-1-yl-5H-[1,2,4]triazolo[4,3-a]quinazolin-4-ylmethyl)-benzonitrile]
- IC50 [1]: 90 nM
- change in vivo at 10 mg/kg [3]: -58%
- melting point: 116 °C

Structure (SMILES): Cc1ccc2c(c1)c(=O)n(Cc1cccnc1)c1nnc(N3CCCCCC3)n21 [Compound 91, 1-Azepan-1-yl-7-methyl-4-pyridin-3-ylmethyl-4H-[1,2,4]triazolo[4,3-a]quinazolin-5-one]
- change in vivo at 10 mg/kg [3]: -70%
- melting point: 175 °C

Structure (SMILES): Cc1ccc2c(c1)c(=O)n(Cc1ccc(C#N)cc1)c1nnc(N3CCCC3)n21 [Compound 93, 4-(7-Methyl-5-oxo-1-pyrrolidin-1-yl-5H-[1,2,4]triazolo[4,3-a]quinazolin-4-ylmethyl)-benzonitrile]
- IC50 [2]: 4300 nM
- change in vivo at 10 mg/kg [3]: -67%
- melting point: 166 °C

Structure (SMILES): Cc1ccc2c(c1)c(=O)n(Cc1ccc(CC(=O)O)cc1)c1nnc(N3CCCC3)n21 [Compound 96, [4-(7-Methyl-5-oxo-1-pyrrolidin-1-yl-5H-[1,2,4]triazolo[4,3-a]quinazolin-4-ylmethyl)-phenyl]-acetic acid]
- IC50 [1]: 58 nM
- melting point: 262 °C

Structure (SMILES): Cc1ccc2c(c1)c(=O)n(CC=Cc1ccccc1)c1nnc(N3CCCC3)n21 [Compound 98, 7-Methyl-4-(3-phenyl-allyl)-1-pyrrolidin-1-yl-4H-[1,2,4]triazolo[4,3-a]quinazolin-5-one]
- IC50 [1]: 29 nM
- change in vivo at 10 mg/kg [3]: -75%
- melting point: 173 °C

Structure (SMILES): Cc1ccc2c(c1)c(=O)n(Cc1ccc(C#N)cc1)c1nnc(N(C)C)n21 [Compound 101, 4-(1-Dimethylamino-7-methyl-5-oxo-5H-[1,2,4]triazolo[4,3-a]quinazolin-4-ylmethyl)-benzonitrile]
- IC50 [2]: 8600 nM
- change in vivo at 10 mg/kg [3]: -80%
- melting point: 201 °C

Structure (SMILES): Cc1ccc2c(c1)c(=O)n(C/C=C/c1ccccc1)c1nnc(N(C)C)n21 [Compound 103, 1-Dimethylamino-7-methyl-4-((E)-3-phenyl-allyl)-4H-[1,2,4]triazolo[4,3-a]quinazolin-5-one]
- IC50 [1]: 39 nM
- IC50 [2]: 10700 nM
- melting point: 171 °C

Structure (SMILES): COC(=O)C(c1ccccc1)n1nc(N(C)C)n2c3ccc(Br)cc3c(=O)nc12 (centres unmarked) [Compound 156, (7-Bromo-1-dimethylamino-5-oxo-5H-[1,2,4]triazolo[4,3-a]quinazolin-3-yl)-phenyl-acetic acid methyl ester]
- IC50 [1]: 90 nM
- melting point: 83 °C

Structure (SMILES): O=c1c2cc(Br)ccc2n2c(N3CCCCCC3)nnc2n1Cc1ccccc1 [Compound 163, 1-(azepan-1-yl)-4-benzyl-7-bromo-4H-[1,2,4]triazolo[4,3-a]-quinazolin-5-one]
- change in vivo at 10 mg/kg [3]: -64%

Structure (SMILES): O=c1c2cc(I)ccc2n2c(N3CCCC3)nnc2n1Cc1ccccc1 [Compound 189, 4-Benzyl-7-iodo-1-pyrrolidin-1-yl-4H-[1,2,4]triazolo[4,3-a]quinazolin-5-one]
- IC50 [1]: 78 nM
- melting point: 184 °C

Structure (SMILES): Cc1ccc2c(c1)c(=O)n(Cc1ccccc1)c1nnc(N3CCCCCC3)n21 [Compound 190, 1-Azepan-1-yl-4-benzyl-7-methyl-4H-[1,2,4]triazolo[4,3-a]quinazolin-5-one]
- IC50 [1]: 190 nM
- melting point: 183 °C

Structure (SMILES): Nc1ccc2c(c1)c(=O)n(Cc1ccccc1)c1nnc(N3CCCCCC3)n21 [Compound 224, 7-Amino-1-azepan-1-yl-4-benzyl-4H-[1,2,4]triazolo[4,3-a]quinazolin-5-one]
- IC50 [1]: 75 nM
- melting point: 240 °C (dec.)

Structure (SMILES): Nc1ccc2c(c1)c(=O)n(C/C=C/c1cccnc1)c1nnc(N3CCCC3)n21 [Compound 227, 7-Amino-4-((E)-3-pyridin-3-yl-allyl)-1-pyrrolidin-1-yl-4H-[1,2,4]triazolo[4,3-a]quinazolin-5-one]
- IC50 [1]: 28 nM
- melting point: 201 °C

Structure (SMILES): CN(C)c1nnc2n(C/C=C/c3ccccc3)c(=O)c3cc(N)ccc3n12 [Compound 229, 7-Amino-1-dimethylamino-4-((E)-3-phenyl-allyl)-4H-[1,2,4]triazolo[4,3-a]quinazolin-5-one]
- IC50 [1]: 80 nM
- melting point: 198 °C

Structure (SMILES): CNc1ccc2c(c1)c(=O)n(Cc1ccccc1)c1nnc(N3CCCC3)n21 [Compound 230, 4-Benzyl-7-methylamino-1-pyrrolidin-1-yl-4H-[1,2,4]triazolo[4,3-a]quinazolin-5-one]
- IC50 [1]: 2 nM
- melting point: 171 °C

Structure (SMILES): CNc1ccc2c(c1)c(=O)n(Cc1ccc(C#N)cc1)c1nnc(N3CCCC3)n21 [Compound 231, 4-(7-Methylamino-5-oxo-1-pyrrolidin-1-yl-5H-[1,2,4]triazolo[4,3-a]quinazolin-4-ylmethyl)-benzonitrile]
- IC50 [1]: 0.27 nM
- melting point: 270 °C

Structure (SMILES): CCNc1ccc2c(c1)c(=O)n(Cc1ccccc1)c1nnc(N3CCCC3)n21 [Compound 233, 4-Benzyl-7-ethylamino-1-pyrrolidin-1-yl-4H-[1,2,4]triazolo[4,3-a]quinazolin-5-one]
- IC50 [1]: 180 nM
- melting point: 225 °C

Structure (SMILES): CN(C)C(=O)Cc1ccc(Cn2c(=O)c3cc(Br)ccc3n3c(N4CCCC4)nnc23)cc1 [Compound 242, 2-[4-(7-Bromo-5-oxo-1-pyrrolidin-1-yl-5H-[1,2,4]triazolo[4,3-a]quinazolin-4-ylmethyl)-phenyl]-N,N-dimethyl-acetamide]
- IC50 [1]: 11 nM
- melting point: 202 °C

Structure (SMILES): O=C(Cc1ccc(Cn2c(=O)c3cc(Br)ccc3n3c(N4CCCC4)nnc23)cc1)NO [Compound 243, 2-[4-(7-Bromo-5-oxo-1-pyrrolidin-1-yl-5H-[1,2,4]triazolo[4,3-a]quinazolin-4-ylmethyl)-phenyl]-N-hydroxy-acetamide]
- IC50 [1]: 28 nM
- melting point: 229 °C

Structure (SMILES): Cc1ccc2c(c1)c(=S)n(CC=Cc1cccnc1)c1nnc(N(C)C)n21 [Compound 246, 1-Dimethylamino-7-methyl-4-(3-pyridin-3-yl-allyl)-4H-[1,2,4]triazolo[4,3-a]quinazoline-5-thione]
- IC50 [1]: 41 nM
- melting point: 133 °C
